Measurements from US20240131036A1, “COMPOSITIONS AND METHODS OF TREATING CONDITIONS” (priority 2020, published 2024).
Like-named read-outs stand apart in the source and are kept apart here.

Assays:
[1] = very high doses (3-60 μg/kg); cited from earlier work
human epithelial cells = test: Gene Set Enrichment Analysis (GSEA) of microarray data (GSE117351), antiviral pathways; assay type: cell-based; set-up: key: ^..: the effect is absent
SARS-CoV-2 RdRP = SARS-CoV-2 RdRP (Severe acute respiratory syndrome coronavirus 2 (2019-nCoV) (SARS-CoV-2), UniProt P0DTD1); test: Enzymatic assay for RdRP (AlphaScreen, BPS Biosciences); assay type: biochemical
Procedure: Min=negative control without any enzyme (0% enzyme activity), Max=positive control with enzyme and substrate (100% enzyme activity). […] The statistical significance of differences was evaluated by one-way ANOVA, *p<0.05, **p<0.01, ***p<0.001, for all conditions relative to the ethanol blank, n=3. […] Min=negative control without any enzyme (0% enzyme activity), Max=positive control with enzyme and substrate (100% enzyme activity). The statistical significance of differences was evaluated by one-way ANOVA, *p<0.05, **p<0.01, ***p<0.001, for all conditions relative to the ethanol blank, n=3
The assay for RdRP activity was outsourced to BPS Biosciences ([…], California, USA) using the following protocol. […] The RdRP reactions were performed in triplicate at 37° C. for 60 min in a 10 μl mixture containing assay buffer, RNA duplex, ATP substrate and enzyme, and the test compound. The reactions were carried out in wells of 384-well Optiplate (PerkinElmer). After enzymatic reactions, 10 μl of anti-Dig Acceptor beads (PerkinElmer, diluted 1:500 with lx detection buffer) were added to the reaction mix. After brief shaking, the plate was incubated for 30 min. […] The values of % activity versus the concentrations of the compound tested were then plotted using non-linear regression analysis of a Sigmoidal dose-response curve generated with the equation Y=B+(T−B)/1+10^((LogEC50−X)×Hill Slope), where Y=percent activity, B=minimum percent activity, T=maximum percent activity, X=logarithm of compound and Hill Slope=slope factor or Hill coefficient. The IC50 value was determined as the concentration causing half-maximal activity.

[2] = biological target: SARS-CoV-2 3CL^Pro (M^pro) (Severe acute respiratory syndrome coronavirus 2 (2019-nCoV) (SARS-CoV-2), UniProt P0DTD1); test: Enzymatic assay for M^pro (3CL Protease, MBP-tagged assay kit); assay type: biochemical; conditions: for inhibition at 0.2 µM: 2×10^−7 M, read-out: M^pro enzyme inhibition
Procedure: FIG. 1.3A and 1.3B illustrate the enzyme inhibition by the selected sterols and secosteroids. […] Min=negative control without any enzyme (0% enzyme activity), Max=positive control with enzyme and substrate (100% enzyme activity). […] The statistical significance of differences was evaluated by one-way ANOVA, *p<0.05, **p<0.01, ***p<0.001, for all conditions relative to the ethanol blank, n=3. FIG. 1.3B illustrates the RdRP enzyme activity inhibition by selected sterols and secosteroids. […] Min=negative control without any enzyme (0% enzyme activity), Max=positive control with enzyme and substrate (100% enzyme activity). The statistical significance of differences was evaluated by one-way ANOVA, *p<0.05, **p<0.01, ***p<0.001, for all conditions relative to the ethanol blank, n=3
The SARS-CoV-2 3CL^Pro (M^pro), MBP-tagged Assay Kit (BPS Biosciences, San Diego, CA, USA) was used to measure 3CL Protease (M^pro) activity for screening and profiling applications. The 3CL inhibitor GC376 was included as a positive control and also used as a standard. The assay was performed according to the protocol provided by the manufacturer with the concentration of compounds tested being 10^−7 M.

[3] = pathway: Host Interactions with HIV factors
[4] = pathway: Host Interactions with Influenza Factors
[5] = pathway: Influenza Viral RNA Transcription & Replication
[6] = read-out: IC50 for inhibition of the enzyme activity of RdRP

## C=C1/C(=C\C=C2/CCC[C@]3(C)[C@@H]([C@H](C)CCCC(C)(C)O)CC[C@@H]23)C[C@@H](O)C[C@@H]1O [1,25(OH)2D3, (3S,5Z,7E)-9,10-secocholesta-5,7,10(19)-trien-1,3,25-triol, reference compound]
[1]
  toxicity and calcemic activity: calcemic
Human epithelial cells
  GSEA Direction: ^..
  GSEA NES (Normalized Enriched Score): ^..
Human epithelial cells; pathway: HIV Life Cycle
  GSEA NES (Normalized Enriched Score): −2.503
Human epithelial cells; [3]
  GSEA Direction: ^..
  GSEA NES (Normalized Enriched Score): ^..
Human epithelial cells; [4]
  GSEA Direction: ^..
  GSEA NES (Normalized Enriched Score): ^..
Human epithelial cells; [5]
  GSEA Direction: ^..
  GSEA NES (Normalized Enriched Score): ^..
Human epithelial cells; pathway: Late Phase of HIV Life Cycle
  GSEA NES (Normalized Enriched Score): −2.658
Human epithelial cells; pathway: Viral Messenger RNA Synthesis
  GSEA NES (Normalized Enriched Score): −2.405
Human epithelial cells; pathway: Viral mRNA Translation
  GSEA NES (Normalized Enriched Score): −3.601

## C=C1CCC(O)CC1=CC=C1CCCC2(C)C1CCC2C(C)(O)C=CC(C)C(C)C (stereo not shown) [20(OH)D2, 20-hydroxyvitamin D2]
[1]
  toxicity and calcemic activity: not toxic and non-calcemic

## CC(C)CCC[C@](C)(O)[C@H]1CC[C@H]2C3=CC=C4C[C@@H](O)CC[C@]4(C)[C@H]3CC[C@@]21C [20S(OH)7DHC, Cholesta-5,7-dien-3β,20-diol]
SARS-CoV-2 RdRP; [6]
  IC50: 4.7 µM
[2]
  inhibition at 0.2 µM: 10 to 19%

## C=C1CC[C@H](O)C/C1=C/C=C1\CCC[C@@]2(C)[C@H]1CC[C@@H]2[C@@](C)(O)CCCC(C)C [20S(OH)D3, (3S,5Z,7E)-9,10-secocholesta-5,7,10(19)-trien-3,20-diol]
SARS-CoV-2 RdRP
  IC50: 2.6 µM

## CC(C)CCC[C@](C)(O)[C@H]1CC[C@H]2C3=CC=C4C[C@@H](O)CC[C@@]4(C)[C@@H]3CC[C@@]21C [20S(OH)L3, 9β,10α-cholesta-5,7-diene-3β,20-diol]
SARS-CoV-2 RdRP; [6]
  IC50: 1 µM

## CC(C)[C@@H](O)CC[C@@H](C)[C@H]1CC[C@H]2C3=CC=C4C[C@@H](O)CC[C@@]4(C)[C@@H]3CC[C@]12C [24(OH)L3, 9β,10α-cholesta-5,7-diene-3β,24-diol]
SARS-CoV-2 RdRP; [6]
  IC50: 2.5 µM
[2]
  inhibition at 0.2 µM: 10 to 19%

## C[C@H](CCCC(C)(C)O)[C@H]1CC[C@H]2C3=CC=C4C[C@@H](O)CC[C@@]4(C)[C@@H]3CC[C@]12C [25(OH)L3, 9β,10α-cholesta-5,7-diene-3β,25-diol]
SARS-CoV-2 RdRP; [6]
  IC50: 0.5 µM
[2]
  inhibition at 0.2 µM: 10 to 19%

## (3S,5Z,7E)-9,10-secocholesta-5,7,10(19)-trien-3,25-diol [25(OH)D3, reference compound]
[1]
  toxicity and calcemic activity: calcemic
SARS-CoV-2 RdRP; [6]
  IC50: 1.3 µM
[2]; 100 nM
  inhibition of M^pro (in words): significant inhibition
